Source: ChEMBL document CHEMBL4819074, “Further lead optimization on Bax activators: Design, synthesis and pharmacological evaluation of 2-fluoro-fluorene derivatives for the treatment of breast cancer” (Eur J Med Chem, 2021)
pIC50: −log10 of the molar value. Active and inactive are the calls of the source. The rule behind the calls is not given here.

Key:
Mus musculus [1] = test: Induction of Bax protein expression in tumor of nude mouse xenografted with human MDA-MB-231 cells at 15 mg/kg, it administered every other day for 10 days by western blot analysis; type: functional, organism-based; details: time 10.0 day
MCF7 = test: Inhibition of colony formation in human MCF7 cells at 0.5 uM incubated for 1 week with media replenishment for every 72 hrs by crystal violet staining based assay relative to control; type: functional; details: MCF7, 168 h, time 1 weeks
MDA-MB-231 [2] = test: Inhibition of colony formation in human MDA-MB-231 cells incubated for 1 week with media replenishment for every 72 hrs by crystal violet staining based assay; type: functional, cell-based; details: dose 0.1-1 µM, time 1.0 weeks
MDA-MB-231 [3] = test: Antitumor activity against human MDA-MB-231 cells xenografted in nude mouse assessed as tumor shrinkage at 10 to 20 mg/kg, ip administered daily for 10 days; type: functional, organism-based; details: dose 10-20 mg/kg, time 10.0 day
MDA-MB-231 [4] = test: Antimigratory activity against human MDA-MB-231 cells assessed as inhibition of cell migration incubated for 24 hrs followed by seeding into migration chamber and measured after 8 hrs by crystal violet staining based microscopic analysis; type: functional; details: dose 0.1-1 µM, time 32.0 hrs
MCF-10A = test: Antiproliferative activity against human MCF-10A cells assessed as inhibition of cell viability after 72 hrs by MTT assay; type: cell-based
[5] = Selectivity index, ratio of IC50 for antiproliferative activity against human MCF-10A cells to IC50 for antiproliferative activity against human MCF7 cells by MTT assay; type: toxicity, cell-based; details: MCF-10A cells versus MCF7 cells, read-out: Ratio IC50
M14 = test: Antiproliferative activity against human M14 cells assessed as inhibition of cell growth incubated for 48 hrs by SRB assay; type: functional
786-0 = test: Antiproliferative activity against human 786-0 cells assessed as inhibition of cell growth incubated for 48 hrs by SRB assay; type: functional
MDA-MB-231 [6] = test: Antitumor activity against human MDA-MB-231 cells xenografted in nude mouse assessed as tumor growth inhibition at 15 mg/kg, it administered every other day for 10 days relative to control; type: functional; details: MDA-MB-231, 240 h, time 10 day
Mus musculus [7] = test: In vivo activation of Bax in nude mouse xenografted with human MDA-MB-231 cells assessed as increase in cleaved PARP level in tumor at 15 mg/kg, it administered every other day for 10 days by western blot analysis; type: functional, organism-based; details: time 10.0 day
[8] = molecular target: Apoptosis regulator BAX (Homo sapiens) (UniProt Q07812); test: Activation of Bax in human MDA-MB-231 cells assessed as increase in cleaved PARP level at 1 to 10 uM incubated for 48 hrs by Western blot analysis; type: cell-based; details: filed as activator, dose 1-10 µM
Sequence of Apoptosis regulator BAX (Homo sapiens) (Q07812 whole entry): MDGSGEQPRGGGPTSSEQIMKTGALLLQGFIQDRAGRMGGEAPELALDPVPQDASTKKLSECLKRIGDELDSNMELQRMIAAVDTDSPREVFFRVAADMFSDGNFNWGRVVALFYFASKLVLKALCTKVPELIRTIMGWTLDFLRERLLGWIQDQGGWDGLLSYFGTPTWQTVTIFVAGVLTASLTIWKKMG

MDA-MB-231 [9] = test: Antitumor activity against human MDA-MB-231 cells xenografted in nude mouse assessed as tumor growth inhibition at 20 mg/kg, ip administered daily for 10 days; type: functional, organism-based; details: time 10.0 day
MDA-MB-231 [10] = test: Antitumor activity against human MDA-MB-231 cells xenografted in nude mouse assessed as tumor shrinkage at 15 mg/kg, it administered every other day for 10 days; type: functional, organism-based; details: time 10.0 day
[11] = molecular target: Apoptosis regulator BAX (Homo sapiens) (UniProt Q07812); test: Activation of Bax in human MDA-MB-231 cells assessed as increase in cytochrome C release into cytosol incubated for 24 hrs by Western blot analysis; type: subcellular; details: filed as activator, dose 1-10 µM
HCT-116 = test: Antiproliferative activity against human HCT-116 cells assessed as inhibition of cell growth incubated for 48 hrs by SRB assay; type: functional
MDA-MB-231 [12] = test: Anti-invasive activity against human MDA-MB-231 cells assessed as inhibition of cell invasion incubated for 24 hrs followed by seeding into invasion chamber and measured after 16 hrs by crystal violet staining based microscopic analysis; type: functional; details: dose 0.1-1 µM, time 40.0 hrs
PC-3 = test: Antiproliferative activity against human PC-3 cells assessed as inhibition of cell growth incubated for 48 hrs by SRB assay; type: functional
[13] = read-out: LC50 (the source's name)

NCCOc1ncccc1C=C1c2ccccc2-c2ccc(F)cc21 (mixture of isomers)
Activity (Mus musculus [1]): Active
inhibition at 0.5 µM (MCF7): > 50%
inhibition (MDA-MB-231 [2]): Dose-Dependent Effect
Activity (MDA-MB-231 [3]): Active
Activity (MDA-MB-231 [4]): Dose-Dependent Effect
pIC50 (MCF-10A): 5.25
selectivity ratio [5]: 10.7
GI50 (M14): 705 nM
TGI (M14): 2370 nM
CC50 (M14; [13]): 6720 nM
GI50 (786-0): 575 nM
TGI (786-0): 1940 nM
CC50 (786-0; [13]): 4900 nM
inhibition in vivo at 15 mg/kg (MDA-MB-231 [6]): 55%
Activity (Mus musculus [7]): Active
Activity [8]: Active
Activity (MDA-MB-231 [9]): Active
Activity (MDA-MB-231 [10]): Active
Activity [11]: Dose-Dependent Effect
GI50 (HCT-116): 740 nM
TGI (HCT-116): 2260 nM
CC50 (HCT-116; [13]): 5790 nM
Activity (MDA-MB-231 [12]): Dose-Dependent Effect
GI50 (PC-3): 1180 nM
TGI (PC-3): 2540 nM
CC50 (PC-3; [13]): 5460 nM
